Patent US20210108198A1, “APPLICATION OF COMPOUND OR TRADITIONAL CHINESE MEDICINE EXTRACT IN PREPARATION OF NUCLEIC ACID DELIVERY AGENT AND RELATED PRODUCTS THEREOF” (INSTITUTE OF BASIC MEDICAL SCIENCES CHINESE ACADEMY OF …, priority 2017, published 2021)
“Also recorded” adds a separate entry of the source.

Assays:
Type in all cases: cell-based, human
A549 cell = assay: RT-qPCR detection of nucleic acid delivered by lipid into A549 cells; conditions: RNA 100 nM; for delivery of double-stranded HJT-sRNA-m7 by single lipid (real-time PCR): 12 hours
[1] = test system: protein expression of the corresponding knockdown genes in A549 cells; assay: Western blot of knockdown genes after lipid-mediated siRNA delivery into A549 cells; conditions: LAMP2, XPN2, Ssu72, CPSF4 or β-actin siRNA 400 nM; reverse evaporation method; FIG. 82
Method: 3.3.1 MRC-5 cell (pulmonary embryonic fibroblast), and A549 cell (human lung adenocarcinoma cell) were cultured to logarithmic growth phase, and then plated into 12-well plates at a cell density of 6×10^5/1 mL medium/well; MRC-5 cells were cultured in Eagle's MEM medium (MEM, Gibco); A549 cells were cultured in Ham's F-12 medium (HyClone); followed by incubation overnight at 37° C., and the follow-up experiments were performed after the cells were attached to the walls.
4) Lipid nucleic acid mixture: the mixture of lipid and nucleic acid prepared from the step 2 were added into cells and mixed, and the final concentration of nucleic acid was 400 nM.
3.3.3 After 24 hours of treatment, the cells were stimulated with the stimulant (1 μg/mL poly (I:C) (P1530, Sigma-Aldrich) as double-stranded RNA viruses mimetics) or 3 ng/mL transforming growth factor TGFβ1 (Pepro Tech)). […]

A549 cells = assay: Confocal fluorescence microscopy of nucleic acid delivered by lipid in cells; conditions: 4 μl lipid, boiling method; 6 hours of co-incubation
Method: Experimental materials: A549 cells (purchased from the Cell Center of the Chinese Academy of Medical Sciences), PGY-sRNA-6-Cy3 (purchased from Ribobio Biotechnology Co., Ltd.), lipid No. 41, Zeiss LSM780 (purchased from Zeiss, Germany), Alexa Fluor® 488 phalloidin (purchased from Invitrogen, USA), DAPI (purchased from Invitrogen, USA), paraformaldehyde (purchased from sigma, USA).
(§1) Experimental methods: PGY-sRNA-6-FAM was dissolved in 100 μl water, mixed with 4 μl lipid, and prepared by the boiling method. Then the mixture was dropped into A549 cells, and after 6 hours of co-incubation, the samples were washed three times with PBS, fixed with 4% paraformaldehyde, washed three times with PBS, stained with Alexa Fluor® 488 phalloidin for 30 min, washed 3 times with PBS, and stained with DAPI for 5 min, washed with PBS, and then sealed.
as §1, with “method:” for “methods:”, “water, and” for “water,”, “by” for “by the”, “Then,” for “Then”, “PBS washed,” for “washed with PBS,”

CCCCCCCCCCCCCCCCCCC[C@@H](O)[C@@H](N)CO [No. 41, Sphinganine (d22:0)]
delivery of double-stranded HJT-sRNA-m7 by single lipid (real-time PCR) (A549 cell; boiling (heating) method, 2.5 μL single lipid): delivered HJT-sRNA-m7 double-stranded RNA into A549 cells; also recorded: about twice that of RNAiMAX | delivery of single-stranded HJT-sRNA-m7 by single lipid (real-time PCR) (A549 cell; boiling (heating) method, 12 hours (No. 37: 3 hours)): delivered HJT-sRNA-m7 single-stranded RNA into A549 and MRC-5 cells | delivery of double-stranded HJT-sRNA-m7 by single lipid (real-time PCR) (A549 cell; reverse evaporation method): delivered HJT-sRNA-m7 double-stranded RNA into A549 cells; also recorded: significantly higher than that of RNAiMAX | protein knockdown effect (Western blot) [1]: significantly higher than the inhibitory effect of HJT-sRNA-m7 mediated by RNAiMAX | entry of PGY-sRNA-6-Cy3 observed under the confocal microscopy (A549 cells): could effectively deliver double-stranded nucleic acid into A549 cells
